Results on 73 compounds are retold here after ChEMBL document CHEMBL4483862, “Open-source discovery of chemical leads for next-generation chemoprotective antimalarials” (2018).

Bounds are passed on as bounds.

The IC50 is the midpoint of a concentration-inhibition curve. Usually IC90 stands for the point of the concentration-response curve where the effect stands at 90%.

This assay relates to Plasmodium berghei. As to the kind of experiment: Luciferase/luciferin-expressing antifolate-resistant parasites were used to infect a culture of HepG2 cells that were pre-incubated with compounds. Infected hepatocytes emit light due to the luciferase reaction. Assay results are presented as the percent inhibition of light emission compared to control. […]. In kind it is functional. The conditions noted are these: sporozoite; for IC50: read-out: LUCIFERASE INFECTION ASSAY - IC50; for IC90: read-out: LUCIFERASE INFECTION ASSAY - IC90.

`Cc1ccc2nc(C(F)(F)F)c(C(=O)NCc3cc(Cl)cc(Cl)c3)n2c1`: the IC50 was above 8.2 µM and the IC90 is above 8.2 µM.

Turning to `Cc1cccc(OC2CCN(C(=O)NCc3cc[nH]n3)CC2)c1C`, the IC50 is above 10 µM and the concentration for an effect of 90% (IC90) is above 10 µM.

Take `CCOC(=O)c1ccc(S(=O)(=O)N2CCC(N(C)C)CC2)cc1`: the IC50 was above 10 µM and the IC90 is above 10 µM.

Turning to `O=C(Nc1cccc(F)c1)N1CCC2(CC1)OCc1cc(-c3ccco3)ccc1O2`, the IC50 is above 8.08 µM and the IC90 is above 8.08 µM.

`O=C1CN(c2ccc(NC(=O)CCc3ccco3)cn2)CCN1`: the half-maximal inhibitory concentration (IC50) was above 10 µM and the IC90 is above 10 µM.

As for `COc1cccc(CC(=O)N2CCCC(C(=O)NCC3CC3)C2)c1` (stereo unspecified), the 50% inhibitory concentration (IC50) is above 10 µM and the 90% effect concentration (IC90) is above 10 µM.

As for `O=S(=O)(Nc1nn(Cc2ccc(C(F)(F)F)cc2)c2ccccc12)c1cccc2nsnc12`, the IC50 is above 6.74 µM and the concentration for an effect of 90% (IC90) is above 6.74 µM.

With `CC(NC(=O)CN1CCCc2c(F)cc(F)cc21)c1ccco1` (stereo unspecified), the IC50 was above 10 µM and the IC90 is above 10 µM.

Turning to `CS(=O)(=O)N1CCCC(C(=O)NC(c2ccccc2)C2CCCCC2)C1` (stereo unspecified), the IC50 was above 10 µM and the concentration for an effect of 90% (IC90) is above 10 µM.

`CC(C)c1noc(CCC(=O)Nc2ccc(F)cc2F)n1`: the IC50 was above 10 µM and the IC90 is above 10 µM.

Take `CCSc1nc2scc(C(F)(F)F)n2c(=O)c1C(=O)N1CC(C)CC(C)C1` (stereo unspecified): the IC50 was above 7.87 µM and the concentration for an effect of 90% (IC90) is above 7.87 µM.

As for `O=C(Nc1cccc2c[nH]nc12)c1cn(-c2ccccc2Br)nn1`, the IC50 is above 10 µM and the IC90 was above 10 µM.

For `CC1CCc2ccccc2N1CC(=O)N(CCC(N)=O)Cc1ccccc1` (stereo unspecified), the IC50 was above 10 µM and the concentration for an effect of 90% (IC90) is above 10 µM.

For the compound `COc1cc(C)ccc1Oc1ccc(NC(=O)NC2CCN3CCCCC23)cn1` (stereo unspecified), the half-maximal inhibitory concentration (IC50) is above 10 µM and the concentration for an effect of 90% (IC90) was above 10 µM.

Regarding `COc1ccc(NC(=O)c2cccc(Cl)c2)cc1OCc1cccnc1`, the IC50 was above 10 µM and the IC90 was above 10 µM.

In the case of `CCN(Cc1cccc(F)c1)C(=O)Nc1ccccc1-n1nc(C)cc1C`, the IC50 was above 10 µM and the IC90 was above 10 µM.

For `CCc1nc(COC(=O)c2c(C)nsc2NC)cs1`, the IC50 was 1.53 µM and the 90% effect concentration (IC90) was 5.52 µM.

Turning to `CC(=O)c1csc(NC(=O)c2cc(C(C)C)nc3c2c(C)nn3C(C)(C)C)n1`, the IC50 was above 10 µM and the IC90 is above 10 µM.

For `Cc1c(C(=O)Nc2cccc(Oc3ccccc3)c2)sc(=O)n1Cc1ccncc1`, the IC50 was above 7.9 µM and the 90% effect concentration (IC90) is above 7.9 µM.

Take `O=C(Nc1nnc[nH]1)C1(c2ccc(F)cc2)CC1`: the concentration for half-maximal inhibition (IC50) is above 10 µM and the IC90 is above 10 µM.

As for `CC(=O)NCCc1nccn1Cc1ccccc1`, the half-maximal inhibitory concentration (IC50) was above 10 µM and the IC90 is above 10 µM.

For `Cc1c(C(=O)NC2CC2)sc(=O)n1Cc1ccc(-c2ccccc2)cc1`, the IC50 turned out to be 1.9 µM and the IC90 was found to be 8.88 µM.

Regarding `Cc1cc(C(=O)NC(C)Cc2ccc(Br)cc2)on1` (stereo unspecified), the IC50 is above 10 µM and the IC90 was above 10 µM.

As for `Cc1ccccc1S(=O)(=O)Nc1nccnc1N1CCN(S(=O)(=O)c2cccc3ccccc23)CC1`, the half-inhibitory concentration (IC50) was above 6.3 µM and the IC90 was above 6.3 µM.

In the case of `O=C(Nc1nc(-c2cccs2)cs1)c1c[nH]c(C(=O)N2CCCC2)c1`, the 50% inhibitory concentration (IC50) is above 10 µM and the IC90 is above 10 µM.

Turning to `CCOC(=O)Nc1cccc(N)c1C`, the IC50 was above 10 µM and the concentration for an effect of 90% (IC90) is above 10 µM.

`O=C(CNc1ccccc1-c1ccccc1)NCC(F)(F)F`: the half-maximal inhibitory concentration (IC50) was above 10 µM and the IC90 was above 10 µM.

Turning to `FC(F)(F)Oc1ccc(Nc2cc(-c3cccc(Cl)c3)ncn2)cc1`, the half-maximal inhibitory concentration (IC50) was above 9.02 µM and the concentration for an effect of 90% (IC90) is above 9.02 µM.

`CCOC(=O)c1c[nH]nc1S(=O)(=O)Nc1ccc[nH]c1=O`: the IC50 is above 10 µM and the IC90 is above 10 µM.

Regarding `Cc1ccccc1C(c1ncccc1C)N(C)C(=O)C1CCN(C(=O)c2cccc(Cl)c2)CC1` (stereo unspecified), the IC50 was above 6.93 µM and the IC90 is above 6.93 µM.

As to `CC1CCN(C(=O)CSC(F)(F)F)CC1`, the 50% inhibitory concentration (IC50) is above 10 µM and the concentration for an effect of 90% (IC90) was above 10 µM.

Consider `Cc1cc(C)c(NC(=O)NCCCOCC(C)C)c(Cl)c1`, for which the half-maximal inhibitory concentration (IC50) is above 10 µM and the concentration for an effect of 90% (IC90) is above 10 µM.

For the compound `COc1cccc(CN2CCC2(C)C(=O)Nc2ccccc2Cc2ccccc2)c1OC` (stereo unspecified), the IC50 was above 7.66 µM and the 90% effect concentration (IC90) is above 7.66 µM.

Consider `Cc1ccsc1C(=O)Nc1ccc(N2CCN(C)CC2)cn1`, for which the IC50 is 0.0143 µM and the 90% effect concentration (IC90) amounted to 0.343 µM.

Turning to `Cc1ccc(S(=O)(=O)CCC(=O)OCC(=O)NCC2CCCO2)cc1` (stereo unspecified), the 50% inhibitory concentration (IC50) is above 10 µM and the 90% effect concentration (IC90) is above 10 µM.

For the compound `Cc1cc(=O)n2nc(COC(=O)c3ccccc3Nc3ccccc3)sc2n1`, the IC50 was above 10 µM and the 90% effect concentration (IC90) is above 10 µM.

As for `COc1cccc(C(=O)Nc2cccc(Nc3ccc(-c4cc(OC)c(OC)c(OC)c4)cn3)c2)c1`, the IC50 is above 6.8 µM and the IC90 is above 6.8 µM.

As to `CCc1nnc(Sc2ncnc3ccsc23)[nH]1`, the half-maximal inhibitory concentration (IC50) is above 10 µM and the IC90 was above 10 µM.

For `CC(C)c1ccc(CS(=O)(=O)C(C)C(=O)NC2CCCC2)cc1` (stereo unspecified), the IC50 is above 10 µM and the 90% effect concentration (IC90) is above 10 µM.

For `Clc1ccc(OCc2cccnc2)c(CN2CCN(c3ncccn3)CC2)c1`, the IC50 was above 10 µM and the IC90 is above 10 µM.

In the case of `CCn1c(NC(=O)C2=NOC(c3ccccc3)C2)nc2ccccc21` (stereo unspecified), the 50% inhibitory concentration (IC50) came to 3.35 µM and the concentration for an effect of 90% (IC90) came to 3.82 µM.

With `CN(C)c1ccc(C(=O)Oc2ccc(-c3nnco3)cc2)cn1`, the IC50 is above 10 µM and the IC90 is above 10 µM.

Take `CN(C)C(=O)Cc1nc(CSc2nc3ncccn3n2)cs1`: the half-maximal inhibitory concentration (IC50) is above 10 µM and the concentration for an effect of 90% (IC90) was above 10 µM.

As for `COc1ccc(-c2ccc3c(c2)COC2(CCN(C(=O)c4cc(F)ccc4C)CC2)O3)cc1OC`, the half-maximal inhibitory concentration (IC50) was above 6.91 µM and the 90% effect concentration (IC90) was above 6.91 µM.

Take `Cn1ccnc1CN(C(=O)c1cnn(-c2ccccc2)c1)C1CC1`: the IC50 was above 10 µM and the IC90 is above 10 µM.

`COc1ccc(C(N)=O)cc1NC(=O)NCc1ccc(N2CCCCCC2)nc1`: the IC50 was above 10 µM and the IC90 is above 10 µM.

Turning to `Cc1onc(-c2ccccc2)c1C(=O)NCC1COCCO1` (stereo unspecified), the 50% inhibitory concentration (IC50) is above 10 µM and the concentration for an effect of 90% (IC90) is above 10 µM.

Turning to `CNC(=O)NC(=O)C(C)N1CCN(CCc2cccs2)CC1` (stereo unspecified), the half-inhibitory concentration (IC50) was above 10 µM and the concentration for an effect of 90% (IC90) was above 10 µM.

As to `COc1cccc(C(=O)Nc2cccc(Nc3ccc(-c4cccc(NC(C)=O)c4)cn3)c2)c1`, the IC50 was above 7.29 µM and the IC90 was above 7.29 µM.

Turning to `CNc1snc(C)c1C(=O)OCc1nc(C(C)C)no1`, the IC50 was 6.11 µM and the IC90 is 6.24 µM.

Regarding `CCOc1cc(C(=O)N2CCOCC2)ccc1OCc1cccnc1`, the IC50 is above 10 µM and the IC90 is above 10 µM.

For the compound `Cc1cccc(NC(=O)N2CCC3(CC2)OCc2cc(-c4ccc(OC(F)(F)F)cc4)ccc2O3)c1`, the half-maximal inhibitory concentration (IC50) is above 6.62 µM and the IC90 is above 6.62 µM.

For `Cc1ccc(-c2csc(NC(=O)CCn3ccnc3)n2)c(C)c1`, the IC50 was above 10 µM and the IC90 is above 10 µM.

On to `Cc1nc2sccn2c1C(=O)NCc1ccccc1Oc1ccccc1`, for which the IC50 was above 9.08 µM and the IC90 was above 9.08 µM.

As for `O=C(Nc1cccc(Cn2ccnc2)c1)c1nn(-c2ccccc2)c2c1CCC2`, the IC50 was above 10 µM and the 90% effect concentration (IC90) is above 10 µM.

In the case of `Nc1cccc(OCc2cccnc2)c1`, the half-maximal inhibitory concentration (IC50) is above 10 µM and the IC90 is above 10 µM.

For `Cc1cc(NC(=O)CCc2ccc(C)c(Cl)c2)n(C)n1`, the IC50 was above 10 µM and the IC90 was above 10 µM.

Turning to `CC(Cn1cccn1)NCc1ccc(F)c(F)c1` (stereo unspecified), the IC50 is above 10 µM and the 90% effect concentration (IC90) is above 10 µM.

Turning to `CN(C)c1ccc(CNC(=O)C2CCN(C(=O)NCc3ccco3)CC2)cc1`, the IC50 was above 10 µM and the 90% effect concentration (IC90) was above 10 µM.

As to `CCc1nc2ccc(C(=O)N3CCCCC3)cn2c1N(C)CCC(C)C`, the IC50 was above 9.26 µM and the IC90 was above 9.26 µM.

Turning to `COc1ccc(-c2ccc3c(c2)COC2(CCN(C(=O)c4ccc(F)cc4F)CC2)O3)cc1OC`, the half-maximal inhibitory concentration (IC50) is above 6.85 µM and the 90% effect concentration (IC90) was above 6.85 µM.

On to `CC(CNC(=O)C1(C)CC1(Cl)Cl)N(C)c1ccccc1` (stereo unspecified), for which the IC50 is above 10 µM and the IC90 is above 10 µM.

`Cc1cc(NC(=O)c2ccco2)sc1C(=O)Nc1nnc[nH]1`: the IC50 was above 10 µM and the IC90 was above 10 µM.

With `Cn1ncc2c(=O)n(Cc3sc4ccccc4c3Cl)cnc21`, the IC50 was above 10 µM and the 90% effect concentration (IC90) is above 10 µM.

For `O=C(Nc1ccc2oc(=O)[nH]c2c1)c1cnn(-c2ccc(Cl)cc2)c1`, the IC50 was above 10 µM and the IC90 was above 10 µM.

In the case of `COc1ccc2c(c1)CCCN2Cc1nn2c(=O)cc(C)nc2s1`, the IC50 was above 10 µM and the IC90 is above 10 µM.

Turning to `COc1ccccc1CNc1cccc2cnccc12`, the concentration for half-maximal inhibition (IC50) is above 10 µM and the IC90 is above 10 µM.

As to `CC1(C(=O)NC2CCN(S(C)(=O)=O)CC2)CC1(Cl)Cl` (stereo unspecified), the 50% inhibitory concentration (IC50) was above 10 µM and the IC90 was above 10 µM.

On to `O=C(NCc1ccc(-n2cccn2)cc1)c1[nH]nc(C2CC2)c1Br`, for which the half-inhibitory concentration (IC50) is 1.27 µM and the IC90 was 1.52 µM.

Consider `Cc1cc(C(=O)NC2CCN(c3ncnc4sc5c(c34)CCCC5)CC2)on1`, for which the half-maximal inhibitory concentration (IC50) was above 10 µM and the IC90 was above 10 µM.

Turning to `CCCc1nc(C)c(C(=O)Nc2nccn2Cc2ccccc2)s1`, the half-inhibitory concentration (IC50) was above 10 µM and the IC90 was above 10 µM.

For the compound `CCn1c(=O)n(CC(=O)Nc2ccc(NC(=O)NC3CC3)cc2)c2ccccc21`, the IC50 is above 10 µM and the 90% effect concentration (IC90) is above 10 µM.

For `Clc1cncc(Cl)c1N1CCN(c2ccc(-c3cccnc3)cn2)CC1`, the half-maximal inhibitory concentration (IC50) was 0.996 µM and the IC90 is above 8.54 µM.
